Experimental findings from ChEMBL document CHEMBL5154677, “On-Demand Activation of a Bioorthogonal Prodrug of SN-38 with Fast Reaction Kinetics and High Releasing Efficiency In Vivo” (J Med Chem, 2022) are described below.

The nature of data set [1]: Dissociation constant , pKa of the compound. Type of data set: physicochemical.
The nature of data set [2]: Stability of the prodrug in PBS at pH 6.5 assessed as suppression of hydrolytic opening of the lactone ring by LC-MS analysis. It counts as physicochemical. The following applies: buffer.
For data set [3], the system named is A549. Briefly: Cytotoxicity against human A549 cells assessed as reduction in cell viability measured after 72 hrs by CCK-8 assay. Type of data set: functional, cell-based. The following applies: A549, 72 h. On the technique in general: Tetrazolium assays rely on reduction of a dye to a coloured formazan, in cell work by metabolically active cells.
Data set [4] can be described thus: Prodrug activation in human A549 cells xenografted in nude mouse assessed as drug release by measuring reduction in blue fluorescence at 5 mg/kg, iv in presence of bis(pinacolato)diboron administered every 5 mins for 1 hr by DAPI staining based confocal laser scanning microscopy. It counts as organism-based. Conditions: in vivo; call rule not given here. For orientation: Xenograft models place foreign cells or tissue in a host animal.

A short description of data set [5]: Cytotoxicity against HEK293T cells assessed as reduction in cell viability measured after 72 hrs by CCK-8 assay. It counts as toxicity, cell-based, HEK-293T. The following applies: human.
Data set [6] in a line: Solubility of compound in PBS. It counts as physicochemical. The following applies: buffer.
The nature of data set [7]: Stability of prodrug in PBS at pH 7.4 assessed as retention time of drug released measured after 24 hrs by LC-MS analysis. It counts as physicochemical. Conditions: buffer, pH 7.4, 24 h.
Data set [8] in a line: Prodrug activation in human A549 cells assessed as SN-38 release by measuring increase in blue fluorescence intensity at 100 uM in presence of bis(pinacolato)diboron incubated for 1 hr by DAPI staining based confocal fluorescence microscopy. Type of data set: cell-based. Conditions: a549, 1 h.
A short description of data set [9]: Prodrug activation in human A549 cells assessed as SN-38 release by measuring increase in yellow fluorescence at 100 uM in presence of bis(pinacolato)diboron incubated for 1 hr by FITC staining based confocal fluorescence microscopy. Type of data set: cell-based. Conditions: a549, 1 h.
A short description of data set [10]: Drug uptake in human A549 cells assessed as drug internalization by measuring increase in fluorescence intensity at 100 uM incubated for 1 hr by FITC staining based confocal fluorescence microscopy. It counts as ADME, cell-based. Conditions: a549, 1 h.
The nature of data set [11]: Prodrug activation in human A549 cells xenografted in nude mouse assessed as drug release by measuring increase in yellow fluorescence at 5 mg/kg, iv in presence of bis(pinacolato)diboron administered every 5 mins for 1 hr by FITC staining based confocal laser scanning microscopy. It counts as organism-based. Conditions: in vivo.
Data set [12] concerns A549. The data set is described as follows: Cytotoxicity against human A549 cells assessed as reduction in cell viability incubated for 72 hrs in presence of bis(pinacolato)diboron by CCK-8 assay. Type of data set: functional, cell-based. The following applies: A549, 72 h.
Data set [13] relates to A549. The data set is described as follows: Cytotoxicity against human A549 cells assessed as cell growth inhibition incubated for 120 hrs by CCK-8 assay. It counts as functional, cell-based. The following applies: A549, 120 h.
A short description of data set [14]: Prodrug activation in human A549 cells assessed as increase in yellow fluorescence at 100 nM incubated for 72 to 120 hrs using FITC staining based laser confocal fluorescence microscopy. Type of data set: cell-based. The following applies: a549, 0.1 µM, time 72-120 hrs.
The nature of data set [15]: Prodrug activation in human A549 cells assessed as reduction in blue fluorescence at 100 nM incubated for 72 to 120 hrs using DAPI staining based laser confocal fluorescence microscopy. It counts as cell-based. Conditions: a549, 0.1 µM, time 72-120 hrs.
A short description of data set [16]: Drug uptake in human A549 cells assessed as drug internalization by measuring blue fluorescence at 100 uM incubated for 1 hr by DAPI staining based confocal fluorescence microscopy. It counts as ADME, cell-based. The following applies: a549, 1 h.
Data set [17] relates to A549. The data set is described as follows: Cytotoxicity against human A549 cells assessed as cell growth inhibition incubated for 120 hrs in presence of bis(pinacolato)diboron by CCK-8 assay. It counts as functional, cell-based. Conditions: A549, 120 h.
Data set [18] in a line: Prodrug activation in human A549 cells xenografted in nude mouse assessed as drug release by measuring increase in yellow fluorescence at 5 mg/kg, iv administered every 5 mins for 1 hr by FITC staining based confocal laser scanning microscopy. Type of data set: organism-based. The following applies: in vivo.
A short description of data set [19]: Stability of prodrug in PBS at pH 7.4 assessed as 7-hydroxylcoumarin formation at 1 uM measured after 24 hrs by HPLC analysis. Conditions: buffer, pH 7.4, 24 h. It counts as physicochemical.

Converted amounts (≈) assume the structure as drawn.

`Nc1ccc(CO)cc1`: in [1], the pKa is 9.68.

In the case of `CCc1c2c(nc3ccc(OCc4ccc([N+](C)(C)[O-])cc4)cc13)-c1cc3c(c(=O)n1C2)COC(=O)[C@]3(O)CC`, the Stability result in data set [2] is reported as “Stable”. The IC50 in the data set with A549 [3] was 128 nM; with A549 [12] it was 29.6 nM; with A549 [13] it was 17.1 nM; in the data set on A549 [17], 9.2 nM. Besides, the Drug metabolism entry in data set [4], in data set [8], in data set [9], in [11], in data set [14] and in data set [15] was “Metabolite_Detected” throughout. In data set [18], the Drug metabolism result was “Metabolite_Notdetected”. Moreover, in [5], the IC50 at 72 h turned out to be 66.3 nM. In data set [6], this compound gave a solubility of 3.2736 µM (≈ 1.77 µg/mL). In addition, in [7], the Retention_time came out at 1.8 min. Besides, the Drug uptake entry in data set [10] and in [16] was “Active” throughout.

As to `CN(C)c1ccc(CO)cc1`, the IC50 at 72 h in data set [5] is above 100000 nM.

On to `C[N+](C)([O-])c1ccc(COc2ccc3ccc(=O)oc3c2)cc1`, for which the Stability result in [19] is “Stable”.

`CCc1c2c(nc3ccc(O)cc13)-c1cc3c(c(=O)n1C2)COC(=O)[C@]3(O)CC` [7-ETHYL-10-HYDROXYCAMPTOTHECIN] had a pKa in [1] of 9.2. Moreover, the half-inhibitory concentration (IC50) with A549 [3] amounted to 11.9 nM; in the data set on A549 [13], 3.8 nM. Besides, in [5], the IC50 at 72 h worked out at 14.2 nM. The same compound showed a solubility in [6] of 0.01101 µM (≈ 0.00432 µg/mL).

For orientation: pKa means the negative logarithm of the acid dissociation constant. Read a high pKa as a weaker acid or stronger base. Broadly, the IC50 is the concentration that gives 50% inhibition. In general, solubility refers to the dissolved amount per volume that the medium holds.
